# Reference: patent US20030170296A1, “Transdermal drug delivery system” (priority 2000, published 2003)
# Columns and labels:
# [1] = single application of hydrogel disc system to skin; neonates with apnea; cited from earlier work
# [2] = male, CD1 hairless, mouse, 24 h, pH 7.4
# [3] = Pharmacokinetic study of transdermal APAP in rats; assay type: in vivo, rats (Sprague-Dawley); conditions: 100 mg APAP enhancer-containing transdermal system vs regular 100 mg patch, n=6 per group (FIG. 3)
# Description: Methodology: Anesthetized (15 mg/kg pentobarbital sodium i.p.) rats (Sprague-Dawley, 500-600 g), were placed on their back, the abdominal hair was trimmed off, and the skin was washed gently with distilled water. Anesthesia was maintained with 0.1 ml pentobarbital (15 mg/ml) along the experiment. […] Blood samples were taken from the tail vein into heparanized tubes at t=0, 1, 2, 3, 4, 5, 7 and 9 hours from the time of application.
# After centrifugation, plasma were analyzed for APAP by EMIT kit (Serum Tox EIA Assay, Diagnostic Reagents, Inc.).
# [4] = cited from earlier work
smiles,measurement,setting,value
Cn1c(=O)c2[nH]cnc2n(C)c1=O [theophylline],duration of therapeutic concentrations,[1],up to 3 days
O=C(O)Cc1ccccc1Nc1c(Cl)cccc1Cl [diclofenac],higher dose of diclofenac delivered vs regular application of Voltaren Emulgel,[2],12 fold
"CC(=O)Nc1ccc(O)cc1 [APAP, Acetaminophen]",systemic penetration (plasma APAP),[3],significant increase in penetration
same,Volume of distribution,[4]; in vivo,0.95 L/kg
same,binding to plasma proteins,[4]; in vivo,20%
same,effective plasma concentrations,[4]; in vivo,10 to 20 µg/mL
same,plasma elimination half life,[4]; similar in children and adults,about 2 hours
same,drug recovered in the urine,[4]; therapeutic doses,90-100%
same,recovered in urine conjugated with cysteine,[4]; therapeutic doses,about 2%
same,recovered in urine conjugated with glucuronic acid,[4]; therapeutic doses,about 60%
same,recovered in urine conjugated with sulfuric acid,[4]; therapeutic doses,about 35%
same,unchanged APAP in urine,[4]; therapeutic doses,about 2%
